# Columns and labels:
# [1] = system: B. humptydooensis ATCC BAA-2767; assay: microbe, parasite or virus in culture; type: cell-based; conditions: Burkholderia humptydooensis, ATCCBAA2767, read-out: Minimum inhibitory concentration (MIC), B. humptydooensis ATCC BAA-2767
# A. baumannii CDC-0033 = assay: microbe, parasite or virus in culture; type: cell-based; conditions: Acinetobacter baumannii, CDC0033, read-out: MIC, A. baumannii CDC-0033
# [2] = system: B. thailandensis ATCC 700388; assay: microbe, parasite or virus in culture; type: cell-based; conditions: Burkholderia thailandensis, ATCC700388, read-out: Minimum inhibitory concentration (MIC), B. thailandensis ATCC 700388
# A. baumannii PBP1a = molecular target: T1, A. baumannii PBP1a (Acinetobacter baumannii, UniProt A0ABX6CK30); assay: Bocillin-FL competition binding via gel filtration, A. baumannii PBP1a; conditions: competition binding assay using Bocillin-FL via gel filtration; read-out: A. baumannii PBP1a Potency
# T1 sequence (A0ABX6CK30 1-851): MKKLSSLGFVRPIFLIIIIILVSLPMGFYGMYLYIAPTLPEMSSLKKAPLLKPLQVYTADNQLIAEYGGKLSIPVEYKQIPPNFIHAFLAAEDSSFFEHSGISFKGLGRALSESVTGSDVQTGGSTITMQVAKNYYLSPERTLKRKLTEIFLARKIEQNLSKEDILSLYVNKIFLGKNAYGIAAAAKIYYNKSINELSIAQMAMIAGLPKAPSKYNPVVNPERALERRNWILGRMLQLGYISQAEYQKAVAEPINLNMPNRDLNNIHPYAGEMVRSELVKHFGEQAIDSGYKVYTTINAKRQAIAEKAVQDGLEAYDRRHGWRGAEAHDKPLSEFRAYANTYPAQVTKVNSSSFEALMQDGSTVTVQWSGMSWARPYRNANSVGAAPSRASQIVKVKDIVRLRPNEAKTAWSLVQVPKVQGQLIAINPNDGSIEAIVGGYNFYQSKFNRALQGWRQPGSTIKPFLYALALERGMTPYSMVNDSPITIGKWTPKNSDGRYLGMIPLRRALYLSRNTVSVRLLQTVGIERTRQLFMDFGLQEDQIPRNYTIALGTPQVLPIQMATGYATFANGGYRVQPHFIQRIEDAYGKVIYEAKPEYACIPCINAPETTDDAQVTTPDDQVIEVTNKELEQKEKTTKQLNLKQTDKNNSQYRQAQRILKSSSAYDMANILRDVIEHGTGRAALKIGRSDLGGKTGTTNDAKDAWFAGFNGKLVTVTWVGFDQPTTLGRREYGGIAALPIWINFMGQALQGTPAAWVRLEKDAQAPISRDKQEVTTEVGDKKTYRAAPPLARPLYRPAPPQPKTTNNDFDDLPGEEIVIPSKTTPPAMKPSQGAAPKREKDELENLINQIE
# Summary of the method: (§1)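 Competitive equilibrium binding; reporter Bocillin-FL. PBP + inhibitor (titration) pre-incubated → Bocillin-FL, 15 min → gel filtration → fluorescence. EC50 from Hill fit of fraction bound vs [inhibitor].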
# P. aeruginosa CDC-0110 = assay: microbe, parasite or virus in culture; type: cell-based; conditions: Pseudomonas aeruginosa, CDC0110, read-out: Minimum inhibitory concentration, P. aeruginosa CDC-0110
# A. baumannii ATCC 19606 = assay: microbe, parasite or virus in culture; type: cell-based; conditions: Acinetobacter baumannii, ATCC19606, read-out: MIC, A. baumannii ATCC 19606
# A. baumannii PBP2 = A. baumannii PBP2 (Acinetobacter baumannii, UniProt D0C8Z9); assay: Bocillin-FL competition binding via gel filtration, A. baumannii PBP2
# Sequence of A. baumannii PBP2 (D0C8Z9 whole entry): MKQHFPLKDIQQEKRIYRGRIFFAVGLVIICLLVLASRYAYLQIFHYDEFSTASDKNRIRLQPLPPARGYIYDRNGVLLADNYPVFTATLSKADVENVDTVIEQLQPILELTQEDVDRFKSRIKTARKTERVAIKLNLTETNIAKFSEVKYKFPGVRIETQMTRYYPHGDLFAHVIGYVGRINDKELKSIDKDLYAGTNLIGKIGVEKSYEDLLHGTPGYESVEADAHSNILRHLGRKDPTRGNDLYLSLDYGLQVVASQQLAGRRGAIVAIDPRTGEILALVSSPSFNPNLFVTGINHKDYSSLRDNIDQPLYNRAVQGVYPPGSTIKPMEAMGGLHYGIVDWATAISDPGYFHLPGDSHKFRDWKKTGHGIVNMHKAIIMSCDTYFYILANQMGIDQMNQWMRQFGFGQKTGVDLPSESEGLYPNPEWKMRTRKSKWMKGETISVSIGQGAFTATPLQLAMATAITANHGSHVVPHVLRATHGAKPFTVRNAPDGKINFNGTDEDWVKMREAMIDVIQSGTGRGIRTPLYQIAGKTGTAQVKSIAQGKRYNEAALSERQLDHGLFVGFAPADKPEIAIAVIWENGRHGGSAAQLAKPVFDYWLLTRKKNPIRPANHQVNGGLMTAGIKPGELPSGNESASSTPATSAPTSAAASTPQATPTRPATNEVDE
# Summary of the method: as §1
# A. baumannii CDC-0036 = assay: microbe, parasite or virus in culture; type: cell-based; conditions: Acinetobacter baumannii, CDC0036, read-out: MIC, A. baumannii CDC-0036
SMILES,MIC [1],MIC (A. baumannii CDC-0033),MIC [2],EC50 (A. baumannii PBP1a),MIC (P. aeruginosa CDC-0110),MIC (A. baumannii ATCC 19606),EC50 (A. baumannii PBP2),MIC (A. baumannii CDC-0036)
"O=C(O)c1cccc2c1OB(O)[C@@H](NC(=O)C(NC(=O)N1CCN(Cc3ccc(O)c(O)c3Cl)C(=O)C1=O)c1ccc(P(=O)(O)O)cc1)C2 (stereo partly drawn) [Example 24, (3R)-3-(2-(4-(2-chloro-3,4-dihydroxybenzyl)-2,3-dioxopiperazine-1-carboxamido)-2-(4-phosphonophenyl)acetamido)-2-hydroxy-3,4-dihydro-2H-benzo[e][1,2]oxaborinine-8-carboxylic acid]",< 1 µg/mL,< 1 µg/mL,< 1 µg/mL,10 to 50 µM,< 1 µg/mL,< 1 µg/mL,10 to 50 µM,< 1 µg/mL
"O=C(O)c1c(F)ccc2c1OB(O)[C@@H](NC(=O)C(NC(=O)N1CCN(Cc3ccc(O)c(O)c3Cl)C1=O)c1ccc(P(=O)(O)O)cc1)C2 (stereo partly drawn) [Example 46, (3R)-3-(2-(3-(2-chloro-3,4-dihydroxybenzyl)-2-oxoimidazolidine-1-carboxamido)-2-(4-phosphonophenyl)acetamido)-7-fluoro-2-hydroxy-3,4-dihydro-2H-benzo[e][1,2]oxaborinine-8-carboxylic acid]",< 1 µg/mL,–,< 1 µg/mL,< 10 µM,< 1 µg/mL,–,10 to 50 µM,–
"O=C(NCCN1CCN(C(=O)NC(C(=O)N[C@H]2Cc3ccc(F)c(C(=O)O)c3OB2O)c2ccc(P(=O)(O)O)cc2)C(=O)C1=O)c1ccc(O)c(O)c1Cl (stereo partly drawn) [Example 120, (3R)-3-(2-(4-(2-(2-chloro-3,4-dihydroxybenzamido)ethyl)-2,3-dioxopiperazine-1-carboxamido)-2-(4-phosphonophenyl)acetamido)-7-fluoro-2-hydroxy-3,4-dihydro-2H-benzo[e][1,2]oxaborinine-8-carboxylic acid]",< 1 µg/mL,2 to 4 µg/mL,< 1 µg/mL,10 to 50 µM,< 1 µg/mL,< 1 µg/mL,10 to 50 µM,8 to 16 µg/mL
"CS(=O)(=O)N1CCN(C(=O)N[C@@H](C(=O)N[C@H]2Cc3ccc(F)c(C(=O)O)c3OB2O)c2ccc(P(=O)(O)O)c(F)c2)C1=O (single isomer, unassigned) [Example 19]",32 to 64 µg/mL,> 128 µg/mL,32 to 64 µg/mL,–,> 128 µg/mL,32 to 64 µg/mL,–,> 128 µg/mL
"O=C(N[C@@H](C(=O)N[C@H]1Cc2cccc(C(=O)O)c2OB1O)c1ccc(P(=O)(O)O)cc1)c1ccc(O)c(O)c1Cl [Example 49, (R)-3-((R)-2-(2-chloro-3,4-dihydroxybenzamido)-2-(4-phosphonophenyl)acetamido)-2-hydroxy-3,4-dihydro-2H-benzo[e][1,2]oxaborinine-8-carboxylic acid]",< 1 µg/mL,> 128 µg/mL,2 to 4 µg/mL,10 to 50 µM,< 1 µg/mL,< 1 µg/mL,10 to 50 µM,> 128 µg/mL
"O=C(O)c1c(F)ccc2c1OB(O)[C@@H](NC(=O)C(NC(=O)N1CCN(Cc3ccc(O)c(O)c3Cl)C(=O)C1=O)c1ccc(P(=O)(O)O)c(F)c1)C2 (stereo partly drawn) [Example 23, (3R)-3-(2-(4-(2-chloro-3,4-dihydroxybenzyl)-2,3-dioxopiperazine-1-carboxamido)-2-(3-fluoro-4-phosphonophenyl)acetamido)-7-fluoro-2-hydroxy-3,4-dihydro-2H-benzo[e][1,2]oxaborinine-8-carboxylic acid]",< 1 µg/mL,< 1 µg/mL,< 1 µg/mL,10 to 50 µM,< 1 µg/mL,< 1 µg/mL,< 10 µM,< 1 µg/mL
"O=C(O)c1c(F)ccc2c1OB(O)[C@@H](NC(=O)C(NC(=O)N1CCN(Cc3cc(F)c(O)c(O)c3Cl)C(=O)C1=O)c1ccc(P(=O)(O)O)cc1)C2 (stereo partly drawn) [Example 45, (3R)-3-(2-(4-(2-chloro-5-fluoro-3,4-dihydroxybenzyl)-2,3-dioxopiperazine-1-carboxamido)-2-(4-phosphonophenyl)acetamido)-7-fluoro-2-hydroxy-3,4-dihydro-2H-benzo[e][1,2]oxaborinine-8-carboxylic acid]",< 1 µg/mL,< 1 µg/mL,< 1 µg/mL,10 to 50 µM,< 1 µg/mL,< 1 µg/mL,< 10 µM,< 1 µg/mL
"CS(=O)(=O)N1CCN(C(=O)NC(C(=O)N[C@H]2Cc3cccc(C(=O)O)c3OB2O)c2ccc(P(=O)(O)O)c(O)c2)C1=O (stereo partly drawn) [Example 17, (3R)-2-hydroxy-3-(2-(3-hydroxy-4-phosphonophenyl)-2-(3-(methylsulfonyl)-2-oxoimidazolidine-1-carboxamido)acetamido)-3,4-dihydro-2H-benzo[e][1,2]oxaborinine-8-carboxylic acid]",–,–,–,–,–,–,50 to 250 µM,–
"O=C(O)c1c(F)ccc2c1OB(O)[C@@H](NC(=O)C(NC(=O)N1CCN(Cc3ccc(O)c(O)c3Cl)C(=O)C1=O)c1ccc(P(=O)(O)O)cc1)C2 (stereo partly drawn) [Example 8, (3R)-3-(2-(4-(2-chloro-3,4-dihydroxybenzyl)-2,3-dioxopiperazine-1-carboxamido)-2-(4-phosphonophenyl)acetamido)-7-fluoro-2-hydroxy-3,4-dihydro-2H-benzo[e][1,2]oxaborinine-8-carboxylic acid]",< 1 µg/mL,< 1 µg/mL,< 1 µg/mL,10 to 50 µM,< 1 µg/mL,< 1 µg/mL,10 to 50 µM,2 to 4 µg/mL

# Reference: patent US20240270762A1, “PENICILLIN-BINDING PROTEIN INHIBITORS” (priority 2021, published 2024)
